Experimental data reported in patent US9974305B2, “Fungicidal or bactericidal composition, and method for controlling diseases” (NISSAN CHEMICAL INDUSTRIES, LTD., priority 2014, dated 2018).
Like-named read-outs stand apart in the source and are kept apart here.

Assays:
Assay type in all cases: in vivo
[1] = system: cucumber gray mold fungus (Botrytis cinerea); assay: Preventive test against gray mold on cucumber cotyledon leaves, spray treatment, preventive value and Colby expected value (Test Examples 1-4); settings: single compound; for pest or weed control at 10 ppm / pest or weed control at 50 ppm / pest or weed control at 20 ppm: Botrytis cinerea, 72 h; for pest or weed control at 10 ppm: 10 ppm spray; for pest or weed control at 50 ppm: 50 ppm spray; for pest or weed control at 20 ppm: 20 ppm spray
Procedure: Using the following compound listed in Table 2 (the active ingredient A) and the compound listed in Table 5 through Table 15 (active ingredient B), an agent was prepared in accordance with the above Formulation Example. This agent was diluted with water to a predetermined concentration to obtain a test solution. Then, cucumber (variety: Sagami-hanjiro) was planted in a plastic pot of 90 cm^3, and in the cotyledon stage, 5 ml of the obtained test solution, was sprayed by a spray gun and air-dried. Thereafter, the treated leaf was cut off and placed in a plastic container which filled approximately 0.5 cm in depth water. A suspension of conidia of cucumber gray mold fungus (Botrytis cinerea) and a dissolved PDA culture medium were mixed at a ratio of 1:1 (mass ratio), and the mixture was dropped to inoculate the treated leaf with 30 μl. After the inoculation, the plastic container was sealed and left at 20° C. for 3 days, the ratio of the formed lesion occupying the inoculated leaf was measured, and the preventive value was calculated in accordance with the following calculation formula. Preventive value=[1−(treated plot lesion area ratio/untreated plot lesion area ratio)]×100
Further, from the preventive value at each agent concentration, synergy was calculated by using the Colby method (Colby S. R. 1976, Weeds 15, 20-22). The calculation method is as follows. E=X+Y−XY/100
X: preventive value of A agent at x concentration
Y: preventive value of B agent at y concentration
E: theoretical value expected by treatment of the mixture of A agent and B agent.
The obtained result is analyzed to be synergy if the observed value is larger than the expected value, to be antagonism if the expected value is larger than the observed value, and to be an additive effect if the observed value and the expected value are the same.
Using the following compound listed in Table 2 (active ingredient A) and the following compound listed in Table 5 through Table 15 (active ingredient B) as active ingredients, a preventive test against gray mold was conducted in accordance with the method described in Test Example 1.
Using the following compound listed in Table 2 (active ingredient A) and the following compound listed in Table 5 or Table 6 (active ingredient B) as active ingredients, a preventive test against gray mold was conducted in accordance with the method described in Test Example 1.
Using the following compound listed in Table 2 (active ingredient A) and the following compound listed in Table 6 through Table 16 (active ingredient B) as active ingredients, a preventive test against gray mold was conducted in accordance with the method described in Test Example 1.

[2] = system: wheat glume blotch (Leptosphaeria nodorum); assay: Efficacy test on wheat glume blotch, spray treatment and prevention test (Test Example 8); settings: for pest or weed control at 5 ppm: single compound 5 ppm
Procedure: An agent comprising the following compound listed in Table 2 (active ingredient A) and the following compound listed in Table 6, Table 11 or Table 15 (active ingredient B) as active ingredients, was prepared in accordance with the above Formulation Example. This agent was diluted with water to a predetermined concentration to obtain a test solution. Then, to seedlings of wheat (variety: Haruyutaka) at the 1-leaf stage, seeded in a pot with a diameter of 7 cm, with 5 seeds per pot, and grown for 7 days, the test solution was applied by a spray gun in an amount of 5 ml per pot, for treatment. One day after the treatment, a spore suspension (1×100,000 cfu/ml) of wheat glume blotch (Leptosphaeria nodorum) was spray-inoculated, and the pot was placed in a moist chamber set in temperature of 20° C. and humidity more than 95% RH for 48 hours. After placing the pot in a glass greenhouse for 7 days, the ratio of the formed lesion area occupying the inoculated leaves was measured, and the preventive value was calculated in accordance with the following formula. Preventive value=[1−(treated plot lesion area ratio/untreated plot lesion area ratio)]×100
(§1) Further, from the preventive value for each agent concentration, synergy was calculated by using the Colby method (Colby S. R. 1976, Weeds 15, 20-22).

[3] = system: cucumber downy mildew (Pseudoperenospora cubensis); assay: Efficacy test on cucumber downy mildew, spray treatment and prevention test (Test Example 7); settings: lesion area ratio
Procedure: An agent comprising the following compound listed in Table 2 (active ingredient A) and the compound listed in Table 6 (C40: active ingredient B) as active ingredients, was prepared in accordance with the above Formulation Example. This agent was diluted with water to a predetermined concentration to obtain a test solution. Then, to seedlings of cucumber (variety: Sagami-hanjiro) at 1.5-leaf stage grown in a pot with a diameter of 7 cm, the test solution was applied by a spray gun in an amount of 10 ml per pot, for treatment. One day after the treatment, a spore suspension (2×100,000 cfu/ml) of cucumber downy mildew (Pseudoperenospora cubensis), was spray-inoculated, and the pot was placed in a moist chamber set in temperature of 20° C. and humidity more than 95% RH for 24 hours. After placing the pot in a glass greenhouse for 6 days, the ratio of the formed lesion area occupying the inoculated leaves was measured, and the preventive value was calculated in accordance with the following formula. Preventive value=[1−(treated plot lesion area ratio/untreated plot lesion area ratio)]×100
as §1

[4] = system: rice sheath blight fungus (Rhizoctonia solani); assay: Efficacy test on rice sheath blight, spray treatment and prevention test (Test Examples 5-6); settings: lesion height
Procedure: An agent comprising the following compound listed in Table 2 (active ingredient A) and the compound listed in Table 6 (C17: active ingredient B) as active ingredients, was prepared in accordance with the above Formulation Example. The agent was diluted with water to a predetermined concentration to obtain a test solution. Then, in a plastic pot of 90 cm^3, rice (Nipponbare) was seeded by 5 grains in one place, and to the grown seedlings in 4 seedling phase, the test solution was applied by a spray gun in an amount of 5 ml per pot, for treatment.
One day after the treatment, 1 g of mycelium flora of rice sheath blight fungus (Rhizoctonia solani) cultured in bran medium, was put by […] to a close-to-ground part of seedlings, and the pot was placed in a moist chamber set in temperature of 25° C. and humidity more than 95% RH for eight days. The height of the lesions which appeared in the highest position from the close-to-ground part (lesion height) was investigated, and the preventive value was calculated in accordance with the following formula. Preventive value=[1−(treated plot lesion height/untreated plot lesion height)]×100
as §1
Using the following compound listed in Table 2 (active ingredient A) and the compound listed in Table 6 (C17: active ingredient B) as active ingredients, a preventive test on rice sheath blight was conducted in accordance with the above Test Example 5.

[5] = system: cucumber powdery mildew (Sphaerotheca cucurbitae); assay: Efficacy test on cucumber powdery mildew, irrigation treatment (Test Example 11); settings: cucumber (Sagami-hanjiro)
Procedure: An agent comprising the following compound listed in Table 2 (active ingredient A) and the compound listed in Table 6 (C18: active ingredient B), was prepared in accordance with the above Formulation Example. This agent was diluted with water to a predetermined concentration to obtain a test solution. 5 ml of the test solution was irrigated by a pipette to the close-to-ground part of cucumber seedlings at the 1 leaf stage (variety: Sagami-hanjiro), grown in a styrol cup with a diameter of 10 cm, and next day, the seedlings were transplanted to the to 4 cun pots. Then, after cultivation for 7 days in a glass greenhouse, to the first true leaf of the cucumber, a spore suspension (100,000 cfu/ml) of cucumber powdery mildew (Sphaerotheca cucurbitae) was inoculated by spraying. After 10 days in a glass greenhouse, the ratio of the formed lesion area occupying the inoculated leaves was measured, and the preventive value was calculated in accordance with the following formula. Preventive value=[1−(treated plot lesion area ratio/untreated plot lesion area ratio)]×100
(§2) Further, from the preventive value at each agent concentration, synergy was calculated by using the Colby method (Colby S. R. 1976, Weeds 15, 20-22).

[6] = system: wheat powdery mildew (Blumeria graminis); assay: Efficacy test on wheat powdery mildew, seed treatment (Test Example 10); settings: wheat (Norin 61)
Procedure: An agent comprising the following compound listed in Table 2 (active ingredient A) and the compound listed in Table 11 (H35: active ingredient B) as active ingredients, was prepared in accordance with the above Formulation Example. This agent was diluted with water to a predetermined concentration to obtain a test solution. A predetermined amount of test solution was put in a glass bottle of 5 ml, and 0.5 g (approximately 15 grains) of wheat seeds (variety: Norin 61) were added, stirred and air-dried. In each pot with a diameter of 7 cm and having soil put therein, 3 grains were seeded and grown for 14 days. To the wheat seedlings grown to the 1-leaf stage, a spore suspension (100,000 cfu/ml) of wheat powdery mildew (Blumeria graminis) was spray-inoculated. After placing the pot in a glass greenhouse for 10 days, the ratio of the formed lesion area occupying the inoculated leaves was measured, and the preventive value was calculated in accordance with the following formula. Preventive value=[1−(treated plot lesion area ratio/untreated plot lesion area ratio)]×100
as §2

[7] = system: wheat glume blotch (Leptosphaeria nodorum); assay: Efficacy test on wheat glume blotch, seed treatment (Test Example 9); settings: single compound
Procedure: An agent comprising the following compound listed in Table 2 (active ingredient A) and the compound listed in Table 11 (H35: active ingredient B) as active ingredients, was prepared in accordance with the above Formulation Example. This agent was diluted with water to a predetermined concentration to obtain a test solution. A predetermined amount of the test solution was put in a glass bottle of 5 ml, and 0.5 g (approximately 15 grains) of wheat seeds (variety: Haruyutaka) were added, stirred and air-dried. In each pot with a diameter of 7 cm having soil put therein, 3 grains were seeded and grown for 14 days. To seedlings of the wheat (variety: Haruyutaka) grown to a 1-leaf stage, a spore suspension (100,000 cfu/ml) of wheat glume blotch (Leptosphaeria nodorum) was spray-inoculated, and the pot was placed in a moist chamber set in temperature of 20° C. and humidity more than 95% RH for 48 hours. After placing the pot for 7 days in a glass greenhouse, the ratio of the formed lesion area occupying the inoculated leaves was measured, and the preventive value was calculated in accordance with the following formula. Preventive value=[1−(treated plot lesion area ratio/untreated plot lesion area ratio)]×100
as §2

[8] = Test Example 4, read-out: Preventive value
[9] = Parastagonospora nodorum, single compound 50 ppm, spray, lesion area ratio, read-out: Preventive value
[10] = Test Example 1, read-out: Preventive value
[11] = Test Example 2, read-out: Preventive value
[12] = Parastagonospora nodorum, spray, lesion area ratio, read-out: Preventive value

CON=C(C(=O)OC)c1ccccc1CON=C(C)c1cccc(C(F)(F)F)c1 [C39, trifloxystrobin, reference compound]
pest or weed control at 10 ppm [1, 8]: 40%
pest or weed control at 50 ppm [2, 9]: 70%

Cc1c(Br)c2ccc(F)cc2n1S(=O)(=O)c1ncn(S(=O)(=O)N(C)C)n1 [C40, amisulbrom]
Preventive value ([3]; single compound 0.5 ppm): 75
Preventive value ([1]; Test Example 1, 100 ppm spray): 0
Preventive value ([1]; Test Example 2, 100 ppm spray): 0

Cc1nc(C(F)(F)F)c(C(=O)Nc2c(Br)cc(OC(F)(F)F)cc2Br)s1 [Compound No. C17, thifluzamide, reference compound]
pest or weed control at 50 ppm [1, 10]: 20%
pest or weed control at 50 ppm [1, 11]: 25%
Preventive value ([4]; Test Example 5, single compound 5 ppm): 69
Preventive value ([4]; Test Example 6, single compound 5 ppm): 75

CO/C=C(/C(=O)OC)c1ccccc1Oc1cc(Oc2ccccc2C#N)ncn1 [Compound No. C18, azoxystrobin, reference compound]
Preventive value ([1]; Test Example 1, 3 ppm spray): 30
Preventive value ([1]; Test Example 2, 3 ppm spray): 28
Preventive value ([2]; single compound 1 ppm, spray, lesion area ratio): 65
Preventive value ([5]; concentration 6.3 ppm): 50

OC(Cc1ccccc1Cl)(Cn1nc[nH]c1=S)C1(Cl)CC1 (stereo not drawn) [Compound No. H31, prothioconazole, reference compound]
pest or weed control at 10 ppm [1, 8]: 50%
pest or weed control at 50 ppm [2, 9]: 30%

CC(C)(C)C(O)(CCc1ccc(Cl)cc1)Cn1cncn1 (stereo not drawn) [Compound No. H35, tebuconazole, reference compound]
Preventive value ([6]; processing amount 0.025 mg/1 g seed): 80
Preventive value ([6]; processing amount 0.1 mg/1 g seed): 95
pest or weed control at 20 ppm ([1]; Test Example 1): 45%
pest or weed control at 20 ppm ([1]; Test Example 2): 50%
pest or weed control at 5 ppm [2, 12]: 45%
Preventive value ([7]; processing amount 1 mg/1 g seed): 60
Preventive value ([7]; processing amount 5 mg/1 g seed): 75

N#CC(CCc1ccc(Cl)cc1)(Cn1cncn1)c1ccccc1 (stereo not drawn) [H13, fenbuconazole]
pest or weed control at 50 ppm [1, 10]: 63%
pest or weed control at 50 ppm [1, 11]: 60%
pest or weed control at 25 ppm ([2]; Parastagonospora nodorum, single compound 25 ppm, spray, lesion area ratio, read-out: Preventive value): 50%

CC1(C)CCC(Cc2ccc(Cl)cc2)C1(O)Cn1cncn1 (stereo not drawn) [H23, metconazole, reference compound]
pest or weed control at 10 ppm [1, 8]: 60%
pest or weed control at 5 ppm [2, 12]: 45%

CCCCC(C#N)(Cn1cncn1)c1ccc(Cl)cc1 (stereo not drawn) [H24, myclobutanil, reference compound]
pest or weed control at 10 ppm [1, 8]: 60%
pest or weed control at 100 ppm ([2]; Parastagonospora nodorum, single compound 100 ppm, spray, lesion area ratio, read-out: Preventive value): 70%

CCCN(CCOc1c(Cl)cc(Cl)cc1Cl)C(=O)n1ccnc1 [H29, prochloraz, reference compound]
pest or weed control at 10 ppm ([1]; read-out: Preventive value, Test Example 4): 50%
pest or weed control at 50 ppm ([2]; Parastagonospora nodorum, read-out: Preventive value): 45%

N#Cc1c(Cl)c(Cl)c(Cl)c(C#N)c1Cl [L25, chlorothalonil]
pest or weed control at 50 ppm [1, 10]: 50%
pest or weed control at 50 ppm [1, 11]: 55%
pest or weed control at 50 ppm [2, 9]: 50%

CC(C)ON=C(CNC(=O)c1ccccc1C(F)(F)F)c1ncc(Cl)c(S(C)(=O)=O)c1Cl [compound 32]
Preventive value ([3]; single compound 250 ppm): 0
Preventive value ([1]; Test Example 2, 1 ppm spray): 94
Preventive value ([1]; Test Example 3, 1 ppm spray): 90
Preventive value ([1]; Test Example 4, 1 ppm spray): 80
Preventive value ([2]; single compound 3 ppm, spray, lesion area ratio): 60
Preventive value ([2]; single compound 10 ppm, spray, lesion area ratio): 85
Preventive value ([4]; Test Example 6, single compound 250 ppm): 6
Preventive value ([5]; concentration 500 ppm): 30
